# Entries after “also recorded” stand apart in the source; their conditions may differ. Where two headings read alike, the source gives them in different places. Marks after values point to notes of the source that are not given here.
# Legend:
# [1] = test system: human ovarian (A2780) cancer cell line; experiment: Phototoxicity / dark cytotoxicity, neutral red uptake assay, A2780; conditions: for PI (phototoxic index): ratio of cytotoxicity following irradiation (420 nm) vs. in the dark
# Procedure: (§1) The novel trans-di-(N-heterocyclic)imine dihydroxido diazido Pt^IV complexes Pt^IV complexes were evaluated against human ovarian (A2780), cisplatin-resistant ovarian (A2780cis) and oesophageal (OE19) cancer cell lines, and the previously reported compounds (FM165 and 3) were also evaluated for comparison. […]
# (§2) controller and 3 UVA lamps (Hitachi, λmax = 361 nm) or 6 Luzchem LZC-420 lamps (λmax = 420 nm) with no other sources of light filtration, or LED light sources (BASETech model no. SP-GU10 230V~50 Hz […]
# (§3) Maintenance. Human ovarian carcinoma (A2780), cisplatin-resistant ovarian carcinoma (A2780CIS) and oesophageal adenocarcinoma (OE19) cells were maintained in RPMI medium containing 10% Foetal Calf Serum (FCS). Cell lines were obtained from the European Collection of Animal Cell Cultures (ECACC). Cells were maintained in antibiotic-free medium in a humidified atmosphere of 95% air: 5% CO2 and subcultured every 7-10 days. Mycoplasma checks were done using the Hoechst staining method. Cells were seeded into dishes the night before experiments at a density of 6 - 7×10^4 cells.cm-2.
# (§4) Experiments were carried out in an adapted laboratory with ambient light levels kept below 1 lux […]
# (§5) Irradiation. Cells were irradiated by a bank of TL03 light sources (λmax 420 nm), filtered to attenuate wavelengths below 400 nm. Irradiances, dosimetry and calibrations were traceable to the National Physical Laboratory.12 Monochromatic light irradiation of the sample was performed using equipment consisting of a 1600W xenon arc light source and a grating monochromator. The apparatus was set to irradiate monochromatic light at 365, 400, 430, 500 and 530 nm. Filters were used to eliminate second order diffraction of shorter wavelengths from the specified longer wavelength monochromatic light.13 Cells were irradiated in stirred suspension. Sham irradiated cells were treated identically to the test cells but were covered during irradiation.
# (§6) Treatment. Test compounds were prepared in Earle’s Balanced Salt Solution (EBSS) and filtered immediately before use. Photofrin was used as the positive control for visible light irradiation. The positive and negative controls were included on each plate in parallel with the complexes. Cell viability […]
# (§7) Cells were treated for 1 h at 37 °C/5% CO2 with EBSS containing the test compound, and then irradiated with 5 J.cm-2 visible radiation.
# (§8) Phototoxic Index and Wavelength-Dependence. The phototoxic Index (PI) was determined 24 h after irradiation using the neutral red uptake assay;14 following cell uptake the neutral red dye accumulates in lysosomes, the low pH in the lysosomal matrix of live cells causes the dye to becomes charged, allowing it to be retained in this organelle.15 The dye was then extracted from the cells upon solubilisation and quantified. Protocol: a stock solution of neutral red was prepared in water (4 mg. mL-1) and diluted 80-fold in the cell culture medium (RPMI). Prior to addition to the cells, the solution was heated to 37 °C and filtered (no. 1 Whatman paper). The growth medium was removed from the cells, the neutral red dye (100 μL) was added and the cells are incubated for 3 hours in the dark. Upon removal of the dye, the cells were rinsed with PBS (100 μL) and then the plates were shaken for 15 min with […] for solubilisation. The dye concentration was quantified by measuring the absorbance at […]. An IC50 value was determined and is defined as the concentration required to inhibit dye uptake by 50%. This was done using non-linear regression (Graphpad Prism). Goodness of fit was determined from the R2 values of the curves and 95% confidence intervals. All cell experiments were performed in triplicate and repeated independently a minimum of two times.
# [2] = test system: cisplatin-resistant ovarian (A2780cis) cancer cell line; experiment: Phototoxicity / dark cytotoxicity, neutral red uptake assay, A2780cis; conditions: for PI (phototoxic index): ratio of cytotoxicity following irradiation (420 nm) vs. in the dark; for IC50: read-out: IC50 (phototoxicity), blue light 420 nm, 5 J cm^–2, TL03, filtered <400 nm
# Procedure: as §1, §3, §4
# (§9) Irradiation. Cells were irradiated by a bank of TL03 light sources (λmax 420 nm), filtered to attenuate wavelengths below 400 nm. Irradiances, dosimetry and calibrations were traceable to the National […]
# (§10) Cells were irradiated in stirred suspension. Sham irradiated cells were treated identically to the test cells but were covered during irradiation.
# as §6, §7, §8
# [3] = assay type: physicochemical; conditions: water, 20 °C
# [4] = test system: A2780, A2780cis and OE19 cancer cell lines; conditions: for Dark toxicity: absence of irradiation, cell lines investigated; for IC50: read-out: IC50 in the absence of irradiation, dark, non-toxic defined as IC50 > 200 μM
# Procedure: as §1, §3, §4, §9, §10, §6, §7, §8
# [5] = Photodecomposition in H2O (loss of N3→Pt LMCT band) by UV-vis spectroscopy; assay type: physicochemical; conditions: 60 μM in H2O, blue light 463 nm, 57 mW cm^–2, UV-vis
# Procedure: Solutions of the Pt^IV diazido complexes (60 μM, H2O) were irradiated with blue light (463 nm, 57 mW cm^–2). […] The data were fitted to y = y0 + Ae^Rox, with r^2 > 0.98 (Fig. 7).
# Figure S2: Changes in UV-Vis spectra of the PtIV diazido complexes (60 μM in H2O) upon irradiation
# Table S11. Decomposition half-lives of complexes (60 μM) when irradiated with blue (463 nm) light,
# as measured by UV-Vis spectroscopy.
# (1 picture or pasted object on this page, not shown here)
# [6] = test system: oesophageal (OE19) cancer cell line; experiment: Phototoxicity / dark cytotoxicity, neutral red uptake assay, OE19; conditions: for PI (phototoxic index) / IC50: OE19; for PI (phototoxic index): ratio of cytotoxicity following irradiation (420 nm) vs. in the dark; for IC50: read-out: IC50 (phototoxicity), blue light 420 nm, 5 J cm^–2, TL03, filtered <400 nm
# Procedure: as §1, §2, §3, §4, §5, §6, §7, §8
# [7] = test system: human ovarian (A2780) cancer cell line; conditions: cited from earlier work; for IC50: read-out: IC50 (phototoxicity); for Dark toxicity: A2780, absence of irradiation
# [8] = test system: cisplatin-resistant ovarian (A2780cis) cancer cell line; conditions: read-out: IC50 (phototoxicity), cited from earlier work
# [9] = test system: oesophageal (OE19) cancer cell line; set-up: method as in PMID 23733242; conditions: OE19, 420 nm irradiation; read-out: IC50 (phototoxicity); cited from earlier work
# [10] = test system: A2780, A2780cis and OE19 cancer cell lines; set-up: method as in PMID 23733242; conditions: dark; read-out: IC50 in the absence of irradiation; cited from earlier work
# [11] = read-out: IC50 (phototoxicity), A2780, blue light 420 nm, 5 J cm^–2, TL03, filtered <400 nm, 1 h treatment, read 24 h after irradiation
Substance,PI (phototoxic index) ([1]; A2780),"IC50 [1, 11]",PI (phototoxic index) [2],IC50 [2],Maximum aqueous solubility [3],IC50 [4],Decomposition half-life t1/2 [5],PI (phototoxic index) [6],IC50 [6],also measured
"trans,trans,trans-[Pt(N3)2(OH)2(1-methylimidazole)2] [Complex 32]",>3.7,56.3 µM,>1.3,164 µM,82 mM,> 200 µM,–,–,–,Dark toxicity [4]: non-toxic in the absence of irradiation
"trans,trans,trans-[Pt(N3)2(OH)2(2-picoline)(pyridine)] [Complex 18]",7.3 ^d,14.5 µM,5.3 ^d,15.5 µM,–,–,–,–,–,"Phototoxicity, fold less phototoxic than 26 ([1]; A2780, 420 nm): ~7 fold"
"trans,trans,trans-[Pt(N3)2(OH)2(3-picoline)2] [Complex 23]",>27.8,7.2 µM,>19.3,10.4 µM,3 mM,> 200 µM,26 min,–,–,–
"trans,trans,trans-[Pt(N3)2(OH)2(3-picoline)(pyridine)] [Complex 19]",>51.5,4 µM,>71.0,3.3 µM,–,> 200 µM,–,>38,5.5 µM,–
"trans,trans,trans-[Pt(N3)2(OH)2(4-picoline)2] [Complex 26]",–,2.1 µM,–,4.1 µM,–,> 200 µM,25 min,–,8.2 µM,–
"trans,trans,trans-[Pt(N3)2(OH)2(4-picoline)(pyridine)] [Complex 20]",>38,5.4 µM,>45,4.6 µM,–,> 200 µM,–,>17,12.3 µM,"Phototoxicity with green light ([1]; A2780, green light 515 nm): no phototoxicity; Phototoxicity with green light ([6]; OE19, green light 515 nm): no phototoxicity"
"trans,trans,trans-[Pt(N3)2(OH)2(NH2CH3)(thiazole)]",–,–,–,–,–,–,–,–,–,"IC50 ([7]; A2780, 420 nm irradiation): 28.2 µM; IC50 ([8]; 420 nm irradiation): 6.4 µM; IC50 [9]: 19.3 µM; IC50 [10]: > 233 µM"
"trans,trans,trans-[Pt(N3)2(OH)2(NH3)(py)] [FM165, reference compound]",>9.6,25.4 µM,–,–,–,–,–,–,–,"Dark toxicity [7]: non-toxic in the absence of irradiation; IC50 ([7]; A2780, visible light 420 nm): 25.4 µM"
"trans,trans,trans-[Pt(N3)2(OH)2(thiazole)2] [Complex 29]",–,2.4 µM,>71.0,2.9 µM,1 mM,–,17 min,>27,7.6 µM,"Dark toxicity ([1]; A2780, absence of irradiation): some dark toxicity; IC50 ([1]; read-out: IC50 in the absence of irradiation, A2780, dark): 115 µM; Dark toxicity ([2]; absence of irradiation): no toxicity; also recorded: without any dark toxicity; Dark toxicity ([6]; OE19, absence of irradiation): no toxicity; also recorded: without any dark toxicity; Dark toxicity [4]: toxic towards cells in the absence of irradiation; Phototoxicity, fold greater than thiazole complex (tz, methylamine) ([4]; all three cell lines, 420 nm): at least 2 fold"
"trans,trans,trans-[Pt(OH)2(N3)2(py)2] [Complex 3, reference compound]",>45,6.7 µM,–,–,34 mM,–,22 min,>45,8.4 µM,"IC50 ([7]; A2780, UVA irradiation): 1.4 µM; Dark toxicity [7]: non-toxic in the absence of irradiation; IC50 ([7]; A2780, visible light 420 nm): 6.7 µM; IC50 ([8]; UVA irradiation): 14.5 µM"
